The values that follow come from patent US10493398B2, “Cyclic amine for selectively removing hydrogen sulphide” (BASF SE, priority 2015, dated 2019).

SMILES strings stand for the structures. Where two headings read alike, the source gives them in different places.

As a reminder, the pKa is the negative logarithm of the acid dissociation constant.

The nature of this data set: pKA values by half-equivalence method. To be noted: for pKa: amine in water, half neutralized with hydrochloric acid; for pKa decrease from 20 °C to 120 °C (pKa at 20 °C − pKa at 120 °C): difference between 20° C. and 120° C. It counts as physicochemical. As for the experimental part:
The pKA values are suitably measured in aqueous solution with an amine concentration of 0.01 to 0.05 mol/kg at the specified temperature by determining the pH at the half-equivalence point, as shown, for example, by the working examples.
The pKA values of various amines were determined by means of the half-equivalence method. For this purpose, the amines were dissolved in water with a concentration of […] and partly neutralized with half the molar amount of hydrochloric acid (0.005 to 0.025 mol/L). The mass of the amine solutions was 250 g. […] The measurements were conducted at 20 and 120° C. The pH electrode used was the “Hamilton Polylite Plus 120” model, which is calibrated with pH 7 and pH 12 buffer solutions. The measurement was effected in a thermostated closed jacketed vessel with nitrogen blanketing.

The mark [1] stands for this setting: 20° C., read-out: pKA at 20° C.
Setting [2] is: 120° C., read-out: pKA at 120° C.

`CN(C)C1CC(C)(C)NC(C)(C)C1` [DATP, 4-dimethylamino-2,2,6,6-tetramethylpiperidine]: the “pKa decrease from 20 °C to 120 °C (pKa at 20 °C − pKa at 120 °C)” value worked out at 2.6. The pKa under setting [1] was 10.7. The pKa under setting [2] was determined as 8.1.
On to `CC1(C)CC(O)CC(C)(C)N1` [TAAol, 4-hydroxy-2,2,6,6-tetramethylpiperidine], for which the “pKa decrease from 20 °C to 120 °C (pKa at 20 °C − pKa at 120 °C)” value is 2.6. For the same molecule, the pKa under setting [1] was 10.2. The pKa under setting [2] turned out to be 7.6.
